According to patent publication US10406150B2, “Method for treatment of primary hormone resistant endometrial and breast cancers” (Lipoxen Technologies Limited, priority 2014, dated 2019):

System: secondary PR negative Ishikawa cells
Test: Model of secondary PR-negative endometrial cancer (progestin-resistant Ishikawa xenograft)
Type: in vivo, mice
Settings: day 7; MPA 250 mg/kg/day i.p. 5 days per week, SC 0.3 mg/kg i.m. each alternate day; mean ± SEM
Experimental: When the surviving cells had grown to a high density but were still less than confluent, cells were subcloned using 0.02% EDTA and 0.25% trypsin prepared in Hanks' balanced salt solution. MPA-containing medium was replaced every 2-3 days. Cells proliferating in 10 μM MPA with the same doubling time as the initial Ishikawa cells proliferating in the medium without MPA, were considered as secondary progestin-resistant Ishikawa cells.
2×10^6 secondary PR negative Ishikawa cells were inoculated into the flanks of MF-1 female nude mice in 100 μl Matrigel.
1) Vehicle control group: vehicle only, −0.9% sodium chloride for injection i.m each alternate day and i.p. for 5 days per week.
2) MPA only control group: medroxyprogesterone acetate (MPA) (250 mg/kg/day) i.p. for 5 days per week.
Tumors were measured with vernier calipers weekly. Tumor volumes (mm^3) were calculated using the modified ellipsoid formula: (length (mm)×width (mm)^2)/2. The ratio (percentage) of “Tumor volume at day n” to “tumor volume at day “0” was calculated for each animal. At the end of the experiments (day 35) animals were euthanized.

SMILES: CC(=O)O[C@]1(C(C)=O)CC[C@H]2[C@@H]3C[C@H](C)C4=CC(=O)CC[C@]4(C)[C@H]3CC[C@@]21C [MPA, medroxyprogesterone acetate]
- Tumor volume at day n/tumor volume at day “0”: 170 ± 19%
